Reference: US8309718B2, “4-pyrazolyl-N-arylpyrimidin-2-amines and 4-pyrazolyl-N-heteroarylpyrimidin-2-amines as janus kinase inhibitors” (Incyte Corporation, priority 2007, dated 2012)

biological target: T1, human JAK2 (Homo sapiens, UniProt O60674); experiment: In vitro JAK kinase assay (HTRF, phosphorylation of biotinylated peptide); format: biochemical; settings: catalytic domain a.a. 828-1132, 30 μM ATP, 500 nM peptide, room temperature 1 hr; read-out: JAK-2 IC50
T1 construct: JAK2 (a.a. 828-1132); His tag (N); made in house; host or cells: insect cells (baculovirus)
How it was run: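 IC50 from HTRF detection (Eu-Py20 antibody, SA-APC) of biotinylated-peptide phosphorylation (500 nM), run 1 h at RT. Enzyme: N-His human JAK2 kinase domain a.a. 828-1132 from insect cells; ATP 30 μM; buffer 50 mM Tris pH 7.8 with NaCl, DTT, BSA.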

T1 sequence (O60674 828-1132): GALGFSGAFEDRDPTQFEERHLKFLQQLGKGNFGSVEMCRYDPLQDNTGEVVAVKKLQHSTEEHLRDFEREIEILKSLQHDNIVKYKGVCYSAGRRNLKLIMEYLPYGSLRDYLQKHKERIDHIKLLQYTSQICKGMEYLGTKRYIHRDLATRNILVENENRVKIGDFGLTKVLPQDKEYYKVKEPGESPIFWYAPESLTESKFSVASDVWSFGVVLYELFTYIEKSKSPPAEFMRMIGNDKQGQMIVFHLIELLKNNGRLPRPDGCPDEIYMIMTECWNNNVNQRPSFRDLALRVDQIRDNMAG

Row | Compound | IC50 [nM]
1 | CCS(=O)(=O)N1CCC(CC(CC#N)n2cc(-c3ccnc(Nc4ccc(N5CCOCC5=O)cc4)n3)cn2)CC1 (racemic) [Example 96, 4-(1-(ethylsulfonyl)piperidin-4-yl)-3-(4-(2-(4-(3-oxomorpholino)phenylamino)pyrimidin-4-yl)-1H-pyrazol-1-yl)butanenitrile] | < 100
2 | N#CCC(CC1CCN(S(=O)(=O)C2CC2)CC1)n1cc(-c2ccnc(Nc3ccc(N4CCOCC4=O)cc3)n2)cn1 (racemic) [Example 97, 4-(1-(cyclopropylsulfonyl)piperidin-4-yl)-3-(4-(2-(4-(3-oxomorpholino)phenylamino)pyrimidin-4-yl)-1H-pyrazol-1-yl)butanenitrile] | < 100
3 | N#CCC(C1CCCC1)n1cc(-c2ccnc(Nc3ccc(N4CCOCC4=O)cc3)n2)cn1 (racemic) [Example 98, 3-cyclopentyl-3-(4-(2-(4-(3-oxomorpholino)phenylamino)pyrimidin-4-yl)-1H-pyrazol-1-yl)propanenitrile] | < 100
4 | COc1cnc(Nc2ccc(N3CCOCC3)cc2)nc1-c1cnn(C(CC#N)C2CCCC2)c1 (racemic) [Example 101, 3-cyclopentyl-3-(4-(5-methoxy-2-(4-morpholinophenylamino)pyrimidin-4-yl)-1H-pyrazol-1-yl)propanenitrile] | < 100
5 | COc1cnc(Nc2ccc(-n3cccn3)cc2)nc1-c1cnn(C(CC#N)C2CCCC2)c1 (racemic) [Example 102, 3-(4-(2-(4-(1H-pyrazol-1-yl)phenylamino)-5-methoxypyrimidin-4-yl)-1H-pyrazol-1-yl)-3-cyclopentylpropanenitrile] | < 100
6 | COc1cnc(Nc2ccc(NC(C)=O)cc2)nc1-c1cnn(C(CC#N)C2CCCC2)c1 (racemic) [Example 103, N-(4-(4-(1-(2-cyano-1-cyclopentylethyl)-1H-pyrazol-4-yl)-5-methoxypyrimidin-2-ylamino)phenyl)acetamide] | < 100
7 | COc1cnc(Nc2ccc(C(=O)N(C)C)cc2)nc1-c1cnn(C(CC#N)C2CCCC2)c1 (racemic) [Example 104, 4-(4-(1-(2-cyano-1-cyclopentylethyl)-1H-pyrazol-4-yl)-5-methoxypyrimidin-2-ylamino)-N,N-dimethylbenzamide] | < 100
8 | N#CCC(C1CCCC1)n1cc(-c2ccnc(Nc3ccc(N4CCCCC4=O)cc3)n2)cn1 (racemic) [Example 105, 3-cyclopentyl-3-(4-(2-(4-(2-oxopiperidin-1-yl)phenylamino)pyrimidin-4-yl)-1H-pyrazol-1-yl)propanenitrile] | < 100
9 | N#CCC(C1CCCC1)n1cc(-c2ccnc(Nc3ccc(N4CCCOC4=O)cc3)n2)cn1 (racemic) [Example 106, 3-cyclopentyl-3-(4-(2-(4-(2-oxo-1,3-oxazinan-3-yl)phenylamino)pyrimidin-4-yl)-1H-pyrazol-1-yl)propanenitrile] | < 100
10 | N#CCC(C1CCCC1)n1cc(-c2ccnc(Nc3ccc(N4CCOC4=O)cc3)n2)cn1 (racemic) [Example 107, 3-cyclopentyl-3-(4-(2-(4-(2-oxooxazolidin-3-yl)phenylamino)pyrimidin-4-yl)-1H-pyrazol-1-yl)propanenitrile] | < 100
11 | CN1CCN(C(=O)c2ccc(Nc3nccc(-c4cnn(C(CC#N)C5CCCC5)c4)n3)cc2)CC1 (racemic) [Example 120, 3-cyclopentyl-3-(4-(2-(4-(4-methylpiperazine-1-carbonyl)phenylamino)pyrimidin-4-yl)-1H-pyrazol-1-yl)propanenitrile] | < 100
12 | N#CCC(C1CCCC1)n1cc(-c2ccnc(Nc3ccc(C(=O)N4CCN(CCO)CC4)cc3)n2)cn1 (racemic) [Example 121, 3-cyclopentyl-3-(4-(2-(4-(4-(2-hydroxyethyl)piperazine-1-carbonyl)phenylamino)pyrimidin-4-yl)-1H-pyrazol-1-yl)propanenitrile] | < 100
13 | N#CCC(C1CCCC1)n1cc(-c2ccnc(Nc3ccc(C(=O)N4CCCC4)cc3)n2)cn1 (racemic) [Example 122, 3-cyclopentyl-3-(4-(2-(4-(pyrrolidine-1-carbonyl)phenylamino)pyrimidin-4-yl)-1H-pyrazol-1-yl)propanenitrile] | < 100
14 | N#CCC(C1CCCC1)n1cc(-c2ccnc(Nc3ccc(C(=O)N4CCNC(=O)C4)cc3)n2)cn1 (racemic) [Example 123, 3-cyclopentyl-3-(4-(2-(4-(3-oxopiperazine-1-carbonyl)phenylamino)pyrimidin-4-yl)-1H-pyrazol-1-yl)propanenitrile] | < 100
15 | N#CCC(C1CCCC1)n1cc(-c2ccnc(Nc3ccc(C(=O)N4CCC(O)CC4)cc3)n2)cn1 (racemic) [Example 124, 3-cyclopentyl-3-(4-(2-(4-(4-hydroxypiperidine-1-carbonyl)phenylamino)pyrimidin-4-yl)-1H-pyrazol-1-yl)propanenitrile] | < 100
16 | CCCN(CC1CC1)C(=O)c1ccc(Nc2nccc(-c3cnn(C(CC#N)C4CCCC4)c3)n2)cc1 (racemic) [Example 125, 4-(4-(1-(2-cyano-1-cyclopentylethyl)-1H-pyrazol-4-yl)pyrimidin-2-ylamino)-N-(cyclopropylmethyl)-N-propylbenzamide] | < 100
17 | N#CCC(C1CCCC1)n1cc(-c2ccnc(Nc3ccc(N4CCCC4=O)cc3)n2)cn1 (racemic) [Example 129, 3-cyclopentyl-3-(4-(2-(4-(2-oxopyrrolidin-1-yl)phenylamino)pyrimidin-4-yl)-1H-pyrazol-1-yl)propanenitrile] | < 100
18 | COc1cnc(Nc2ccc(N3CCCC3=O)cc2)nc1-c1cnn(C(CC#N)C2CCCC2)c1 (racemic) [Example 130, 3-cyclopentyl-3-(4-(5-methoxy-2-(4-(2-oxopyrrolidin-1-yl)phenylamino)pyrimidin-4-yl)-1H-pyrazol-1-yl)propanenitrile] | < 100

Further lines, results first:

Row | IC50 [nM] | Compound
19 | < 100 | Cc1nccc(-c2cccc(Nc3nccc(-c4cnn(C(CC#N)C5CCCC5)c4)n3)c2)n1 (racemic) [Example 99, 3-cyclopentyl-3-(4-(2-(3-(2-methylpyrimidin-4-yl)phenylamino)pyrimidin-4-yl)-1H-pyrazol-1-yl)propanenitrile]
20 | < 100 | N#CCC(C1CCCC1)n1cc(-c2ccnc(Nc3cccc(N)c3)n2)cn1 (racemic) [Example 108, 3-(4-(2-(3-aminophenylamino)pyrimidin-4-yl)-1H-pyrazol-1-yl)-3-cyclopentylpropanenitrile]
21 | < 100 | CNC(=O)c1cccc(Nc2nccc(-c3cnn(C(CC#N)C4CCCC4)c3)n2)c1 (racemic) [Example 109, 3-(4-(1-(2-cyano-1-cyclopentylethyl)-1H-pyrazol-4-yl)pyrimidin-2-ylamino)-N-methylbenzamide]
22 | < 100 | CN(C)C(=O)c1cccc(Nc2nccc(-c3cnn(C(CC#N)C4CCCC4)c3)n2)c1 (racemic) [Example 110, 3-(4-(1-(2-cyano-1-cyclopentylethyl)-1H-pyrazol-4-yl)pyrimidin-2-ylamino)-N,N-dimethylbenzamide]
23 | < 100 | N#CCC(C1CCCC1)n1cc(-c2ccnc(Nc3cccc(C(=O)N4CCC(O)CC4)c3)n2)cn1 (racemic) [Example 111, 3-cyclopentyl-3-(4-(2-(3-(4-hydroxypiperidine-1-carbonyl)phenylamino)pyrimidin-4-yl)-1H-pyrazol-1-yl)propanenitrile]
24 | < 100 | N#CCC(C1CCCC1)n1cc(-c2ccnc(Nc3cccc(C(=O)NCCO)c3)n2)cn1 (racemic) [Example 112, 3-(4-(1-(2-cyano-1-cyclopentylethyl)-1H-pyrazol-4-yl)pyrimidin-2-ylamino)-N-(2-hydroxyethyl)benzamide]
25 | < 100 | CCS(=O)(=O)Nc1cccc(Nc2nccc(-c3cnn(C(CC#N)C4CCCC4)c3)n2)c1 (racemic) [Example 114, N-(3-(4-(1-(2-cyano-1-cyclopentylethyl)-1H-pyrazol-4-yl)pyrimidin-2-ylamino)phenyl)ethanesulfonamide]
26 | < 100 | CS(=O)(=O)Nc1cccc(Nc2nccc(-c3cnn(C(CC#N)C4CCCC4)c3)n2)c1 (racemic) [Example 115, N-(3-(4-(1-(2-cyano-1-cyclopentylethyl)-1H-pyrazol-4-yl)pyrimidin-2-ylamino)phenyl)methanesulfonamide]
27 | < 100 | COC(=O)Nc1cccc(Nc2nccc(-c3cnn(C(CC#N)C4CCCC4)c3)n2)c1 (racemic) [Example 116, Methyl 3-(4-(1-(2-cyano-1-cyclopentylethyl)-1H-pyrazol-4-yl)pyrimidin-2-ylamino)phenylcarbamate]
28 | < 100 | CC(=O)Nc1cccc(Nc2nccc(-c3cnn(C(CC#N)C4CCCC4)c3)n2)c1 (racemic) [Example 117, N-(3-(4-(1-(2-cyano-1-cyclopentylethyl)-1H-pyrazol-4-yl)pyrimidin-2-ylamino)phenyl)acetamide]
29 | < 100 | N#CCC(C1CCCC1)n1cc(-c2ccnc(Nc3cccc(NC(=O)CN4CCCC4)c3)n2)cn1 (racemic) [Example 118, N-(3-(4-(1-(2-cyano-1-cyclopentylethyl)-1H-pyrazol-4-yl)pyrimidin-2-ylamino)phenyl)-2-(pyrrolidin-1-yl)acetamide]
30 | < 100 | N#CCC(C1CCCC1)n1cc(-c2ccnc(Nc3ccc(C(=O)NCC4CC4)cc3)n2)cn1 (racemic) [Example 126, 4-(4-(1-(2-cyano-1-cyclopentylethyl)-1H-pyrazol-4-yl)pyrimidin-2-ylamino)-N-(cyclopropylmethyl)benzamide]
31 | < 100 | N#CCC(C1CCCC1)n1cc(-c2ccnc(Nc3ccc(C(=O)N4CCC4)cc3)n2)cn1 (racemic) [Example 128, 3-(4-(2-(4-(azetidine-1-carbonyl)phenylamino)pyrimidin-4-yl)-1H-pyrazol-1-yl)-3-cyclopentylpropanenitrile]
